According to ChEMBL document CHEMBL2321696, “Azaindole-Based Inhibitors of Cdc7 Kinase: Impact of the Pre-DFG Residue, Val 195” (ACS Med Chem Lett, 2013):
pKi: −log10 of the molar value.

Experiments:
[1] = target: Cell division cycle 7-related protein kinase (Homo sapiens, UniProt O00311); assay: Inhibition of human Cdc7 using biotin-C6linker-TPSDSLIYDDGLS as substrate after 1 hr
[2] = target: Glycogen synthase kinase-3 beta (Homo sapiens, UniProt P49841); assay: Inhibition of human recombinant GSK3beta
Chain of Glycogen synthase kinase-3 beta (P49841 whole entry): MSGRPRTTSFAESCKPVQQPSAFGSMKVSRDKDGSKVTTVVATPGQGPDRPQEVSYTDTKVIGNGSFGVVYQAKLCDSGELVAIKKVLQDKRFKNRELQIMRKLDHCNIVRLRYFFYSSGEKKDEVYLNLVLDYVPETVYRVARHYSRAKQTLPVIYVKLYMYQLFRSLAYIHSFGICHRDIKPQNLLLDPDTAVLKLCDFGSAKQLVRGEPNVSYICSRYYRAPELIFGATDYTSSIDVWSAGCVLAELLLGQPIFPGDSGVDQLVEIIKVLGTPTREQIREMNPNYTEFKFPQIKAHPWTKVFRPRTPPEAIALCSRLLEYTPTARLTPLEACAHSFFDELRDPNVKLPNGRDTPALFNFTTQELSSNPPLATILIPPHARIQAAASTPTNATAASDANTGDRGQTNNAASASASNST

Chain of Cell division cycle 7-related protein kinase (O00311 whole entry): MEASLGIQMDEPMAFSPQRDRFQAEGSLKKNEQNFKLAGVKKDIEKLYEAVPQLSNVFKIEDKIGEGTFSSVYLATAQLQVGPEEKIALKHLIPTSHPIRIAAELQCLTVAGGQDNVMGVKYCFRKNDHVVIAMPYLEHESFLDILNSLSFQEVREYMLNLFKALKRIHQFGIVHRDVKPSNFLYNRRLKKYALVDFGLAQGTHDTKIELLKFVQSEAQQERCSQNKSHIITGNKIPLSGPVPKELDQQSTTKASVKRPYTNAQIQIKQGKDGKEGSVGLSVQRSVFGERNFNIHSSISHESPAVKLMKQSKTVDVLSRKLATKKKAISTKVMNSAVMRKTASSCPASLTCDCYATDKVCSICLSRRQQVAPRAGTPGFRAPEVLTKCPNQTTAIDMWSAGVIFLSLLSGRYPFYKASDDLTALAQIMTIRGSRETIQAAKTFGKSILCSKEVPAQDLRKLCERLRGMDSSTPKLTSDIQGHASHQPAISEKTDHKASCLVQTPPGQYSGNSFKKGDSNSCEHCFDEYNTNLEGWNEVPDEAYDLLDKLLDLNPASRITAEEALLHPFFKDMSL

O=c1cc(-c2c[nH]c3ncccc23)cc(NC2CCCCC2)[nH]1 was tested. Which pKi [1] did it give?
The pKi was 9.55.

How did the pKi [1] turn out when N#Cc1cc(-c2c[nH]c3ncccc23)cc(NC2CCCCC2)n1 was run?
The pKi was 8.11.

N#Cc1cc(-c2c[nH]c3ncccc23)cc(NCc2ccccc2)n1 was tested. Which pKi [1] did it give?
The pKi was 8.85.

How did the pKi [1] turn out when N#Cc1cc(-c2c[nH]c3ncccc23)cc(N[C@H]2CC[C@H](O)CC2)n1 was run?
Its pKi is 8.26.

With NC(=O)c1cc(-c2c[nH]c3ncccc23)cc(N[C@H]2CC[C@H](O)CC2)n1 as the compound, how does the pKi [1] read?
Its pKi is 7.17.

How did the pKi [1] turn out when Clc1cc(-c2c[nH]c3ncccc23)cc(NC2CCCCC2)n1 was run?
The pKi was 9.05.

And the pKi [2]?
Its pKi is 7.24.

How did the pKi [1] turn out when c1cnc2[nH]cc(-c3ccnc(NC4CCCCC4)c3)c2c1 was run?
Its pKi is 8.06.

With Cc1cc(-c2c[nH]c3ncccc23)cc(NC2CCCCC2)n1 as the compound, how does the pKi [1] read?
Its pKi is 7.89.

How did the pKi [1] turn out when Cc1cc(-c2c[nH]c3ncccc23)cc(NCc2ccccc2)n1 was run?
Its pKi is 7.82.

With Cc1cc(-c2c[nH]c3ncccc23)cc(N[C@H]2CC[C@H](O)CC2)n1 as the compound, how does the pKi [1] read?
The pKi was 7.57.

How did the pKi [1] turn out when Fc1cc(-c2c[nH]c3ncccc23)cc(NC2CCCCC2)n1 was run?
The pKi was 8.49.

O[C@H]1CC[C@H](Nc2cc(-c3c[nH]c4ncccc34)cc(F)n2)CC1 was tested. Which pKi [1] did it give?
Its pKi is 8.77.

N[C@H]1CC[C@H](Nc2cc(-c3c[nH]c4ncccc34)cc(F)n2)CC1 was tested. Which pKi [1] did it give?
The pKi was 8.47.
